Source: PubChem BioAssay AID1963858 (Molecular Pharmacology Branch, DTP, NCI, 2024)

Test system: HOP-62 multicell spheroids with HUVEC/MSC, viability
Assay: Anticancer human tumor HOP-62 cell line growth inhibition [KRAS2];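 note: viability read after a week of compound exposure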;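 for viability, T/C: 100% = DMSO vehicle-treated spheroids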
Conditions: for IC50: curve of first compound; for viability, T/C: stronger effect = lower value
How it was run: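 KRAS-mutant tumor cells were grown as spheroids with HUVEC endothelial cells and human MSCs as stroma. Targeted agents were tested alone and with KRAS pathway inhibitors. Doses started at or near clinical Cmax, or 10 microM, descending half-log.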

[1] = second compound 0.0316 µM, first compound 0.0316 µM
[2] = second compound 0.0316 µM, first compound 0.1 µM
[3] = second compound 0.1 µM, first compound 0.0316 µM
[4] = second compound 0.1 µM, first compound 0.1 µM
[5] = second compound 0.316 µM, first compound 0.0316 µM
[6] = second compound 0.316 µM, first compound 0.1 µM
[7] = second compound 1 µM, first compound 0.0316 µM
[8] = second compound 1 µM, first compound 0.1 µM
[9] = second compound 3.16 µM, first compound 0.0316 µM
[10] = second compound 3.16 µM, first compound 0.1 µM

## CC(C)n1nc(-c2ccc3oc(N)nc3c2)c2c(N)ncnc21 + C=CC(=O)N1CCN(c2nc(OCC3CCCN3C)nc3c2CCN(c2cccc4cccc(C)c24)C3)CC1CC#N
Second compound 0.0316 µM
  IC50: 0.471 nM
Second compound 0.1 µM
  IC50: < 0.316 nM
Second compound 0.316 µM
  IC50: < 0.316 nM
Second compound 1 µM
  IC50: < 0.316 nM
Second compound 3.16 µM
  IC50: < 0.316 nM
Second compound 0.0316 µM, first compound 0.000316 µM
  viability, T/C: 57.1%
Second compound 0.0316 µM, first compound 0.001 µM
  viability, T/C: 37%
Second compound 0.0316 µM, first compound 0.00316 µM
  viability, T/C: 23.5%
Second compound 0.0316 µM, first compound 0.01 µM
  viability, T/C: 17.5%
[1]
  viability, T/C: 12.1%
[2]
  viability, T/C: 9.28%
Second compound 0.1 µM, first compound 0.000316 µM
  viability, T/C: 36.3%
Second compound 0.1 µM, first compound 0.001 µM
  viability, T/C: 30.6%
Second compound 0.1 µM, first compound 0.00316 µM
  viability, T/C: 14.9%
Second compound 0.1 µM, first compound 0.01 µM
  viability, T/C: 12.8%
[3]
  viability, T/C: 11%
[4]
  viability, T/C: 8.68%
Second compound 0.316 µM, first compound 0.000316 µM
  viability, T/C: 29.9%
Second compound 0.316 µM, first compound 0.001 µM
  viability, T/C: 19.6%
Second compound 0.316 µM, first compound 0.00316 µM
  viability, T/C: 14.9%
Second compound 0.316 µM, first compound 0.01 µM
  viability, T/C: 10.6%
[5]
  viability, T/C: 8.56%
[6]
  viability, T/C: 7.08%
Second compound 1 µM, first compound 0.000316 µM
  viability, T/C: 23.1%
Second compound 1 µM, first compound 0.001 µM
  viability, T/C: 16.1%
Second compound 1 µM, first compound 0.00316 µM
  viability, T/C: 13.3%
Second compound 1 µM, first compound 0.01 µM
  viability, T/C: 9.5%
[7]
  viability, T/C: 7.25%
[8]
  viability, T/C: 5.88%
Second compound 3.16 µM, first compound 0.000316 µM
  viability, T/C: 5%
Second compound 3.16 µM, first compound 0.001 µM
  viability, T/C: 0.34%
Second compound 3.16 µM, first compound 0.00316 µM
  viability, T/C: 2.87%
Second compound 3.16 µM, first compound 0.01 µM
  viability, T/C: 0.44%
[9]
  viability, T/C: 0.63%
[10]
  viability, T/C: 0.48%

## COC(=O)c1ccc2c(C(=Nc3ccc(N(C)C(=O)CN4CCN(C)CC4)cc3)c3ccccc3)c(O)[nH]c2c1 + C=CC(=O)N1CCN(c2nc(OCC3CCCN3C)nc3c2CCN(c2cccc4cccc(C)c24)C3)CC1CC#N
Second compound 0.0316 µM
  IC50: < 31.6 nM
Second compound 0.1 µM
  IC50: < 31.6 nM
Second compound 0.316 µM
  IC50: < 31.6 nM
Second compound 1 µM
  IC50: < 31.6 nM
Second compound 3.16 µM
  IC50: < 31.6 nM
[1]
  viability, T/C: 42.5%
[2]
  viability, T/C: 36.9%
Second compound 0.0316 µM, first compound 0.316 µM
  viability, T/C: 28.2%
Second compound 0.0316 µM, first compound 1 µM
  viability, T/C: 26.6%
Second compound 0.0316 µM, first compound 3.16 µM
  viability, T/C: 25.1%
Second compound 0.0316 µM, first compound 10 µM
  viability, T/C: 7.5%
[3]
  viability, T/C: 30%
[4]
  viability, T/C: 32.6%
Second compound 0.1 µM, first compound 0.316 µM
  viability, T/C: 21.7%
Second compound 0.1 µM, first compound 1 µM
  viability, T/C: 23%
Second compound 0.1 µM, first compound 3.16 µM
  viability, T/C: 20.5%
Second compound 0.1 µM, first compound 10 µM
  viability, T/C: 8.85%
[5]
  viability, T/C: 25.7%
[6]
  viability, T/C: 21.7%
Second compound 0.316 µM, first compound 0.316 µM
  viability, T/C: 24.1%
Second compound 0.316 µM, first compound 1 µM
  viability, T/C: 21.7%
Second compound 0.316 µM, first compound 3.16 µM
  viability, T/C: 20%
Second compound 0.316 µM, first compound 10 µM
  viability, T/C: 1.11%
[7]
  viability, T/C: 26.5%
[8]
  viability, T/C: 19.2%
Second compound 1 µM, first compound 0.316 µM
  viability, T/C: 19.7%
Second compound 1 µM, first compound 1 µM
  viability, T/C: 17.8%
Second compound 1 µM, first compound 3.16 µM
  viability, T/C: 8.02%
Second compound 1 µM, first compound 10 µM
  viability, T/C: 0.28%
[9]
  viability, T/C: 6.95%
[10]
  viability, T/C: 3.11%
Second compound 3.16 µM, first compound 0.316 µM
  viability, T/C: 20.2%
Second compound 3.16 µM, first compound 1 µM
  viability, T/C: 0.09%
Second compound 3.16 µM, first compound 3.16 µM
  viability, T/C: 0.09%
Second compound 3.16 µM, first compound 10 µM
  viability, T/C: 0.95%
